Results from article PMC9146163, “Novel Au Carbene Complexes as Promising Multi-Target Agents in Breast Cancer Treatment” (Pharmaceuticals, 2022).
Like-named read-outs stand apart in the source and are kept apart here.

How the values were obtained:
[1] = biological target: T1, Labeled Rabbit Muscle Actin (Oryctolagus cuniculus, UniProt P68135); assay: In vitro actin polymerization assay; format: biochemical; conditions: 5 µM; for actin polymerization curve, final value: end of 1 h kinetic read, control about 37.000 RFU
T1 construct: purchased Abcam (Actin Polymerization/Depolymerization Assay Kit)
Protocol: (§1) The ability of the tested compounds to interfere with the actin polymerization and depolymerization reaction was measured using an Actin Polymerization/Depolymerization Assay Kit purchased from Abcam, following the manufacturer’s instructions. […] For the polymerization assay, reconstituted actin was mixed with supplemented Buffer G and samples in a white 96-well plate and then the polymerization reaction was induced with the addition of the Buffer P supplemented with 10 mM ATP. The solution was mixed and the data acquisition started. For the Actin Depolymerization Assay, supplemented Buffers P and G were mixed and incubated in a white 96-well plate at room temperature for one hour to polymerize the actin, protected from light. Then samples were added and the data acquisition started. Latrunculin A and Cytochalasin B were used as control molecules at a concentration of 5 μM. For both the assays, the assembly of actin filaments was determined by measuring the fluorescence (Ex/Em: 365/410 nm) in kinetic mode for 1 h at room temperature using a microplate reader.

[2] = biological target: T1, Labeled Rabbit Muscle Actin; assay: In vitro actin depolymerization assay; format: biochemical; conditions: for effect on already polymerized actin (in words): 5 µM
Protocol: as §1

[3] = LogP determination (1-octanol/water, UV/vis); format: physicochemical; conditions: log[complex]oct/[complex]H2O, 55 μM, UV-Vis
Protocol: The logarithm of the partition coefficient (LogP) was evaluated by making a slight modification to the procedure reported in ref. [79]. Equal volumes of 1-octanol and water (distilled after milli-Q purification) were stirred for 20 h at room temperature. Then, they were separated to give 1-octanol-saturated water and water-saturated 1-octanol. Six (10, 20, 40, 50, 60 and 100 μM) standard concentrations of the compounds were prepared from the water-saturated 1-octanol. Analysis using UV/vis spectroscopy was used to obtain a calibration curve of absorbance vs. concentration. For each complex, a solution was prepared in the water-saturated 1-octanol (55 μM) and an equal volume of 1-octanol-saturated water was added. The solutions (biphasic) were mixed for 15 min and then centrifuged for 1h at 6500 rpm to allow separation.
Concentration in water-saturated 1-octanol was determined by UV-Vis spectroscopy. Reported LogP is defined as log[complex]oct/[complex]H2O.

MDA-MB-231 cells = assay: MTT assay, MDA-MB-231; format: cell-based, human; conditions: read-out: IC50 MDA-MB-231
Protocol: (§2) The five employed cell lines were purchased from American Type Culture Collection (ATCC, Manassas, VA, USA) and maintained as already reported. MCF-7, MDA-MB-231, MCF-10A and Hek-293 were cultured, as indicated by Iacopetta et al.. SkBr3 cells were maintained in DMEM high glucose, supplemented with 10% FBS and 100 μg/mL penicillin/streptomycin.
(§3) MTT assays [Sigma Aldrich (St.Louis, MO, USA)] were used in order to determine the in vitro anticancer activities of all the target compounds, as already reported.The compounds were tested at different concentrations (0.1-1-10-20-40 µM) for 72 h. Results are represented as percent (%) of basal and the IC50 values were calculated using GraphPad Prism 9 (GraphPad Software, La Jolla, CA, USA).

MCF-7 cells = assay: MTT assay, MCF-7; format: cell-based, human; conditions: read-out: IC50 MCF-7
Protocol: as §2, §3

SkBr3 cells = assay: MTT assay, SkBr3; format: cell-based, human; conditions: read-out: IC50 SkBr3
Protocol: as §2, §3

MCF-10A cells = assay: MTT assay, normal MCF-10A; format: cell-based, human; conditions: 72 h, read-out: IC50 MCF-10A
Protocol: (§4) The five employed cell lines were purchased from American Type Culture Collection (ATCC, Manassas, VA, USA) and maintained as already reported. […] SkBr3 cells were maintained in DMEM high glucose, supplemented with 10% FBS and 100 μg/mL penicillin/streptomycin.
[…] Results are represented as percent (%) of basal and the IC50 values were calculated using GraphPad Prism 9 (GraphPad Software, La Jolla, CA, USA).

Hek-293 cells [4] = assay: MTT assay, normal Hek-293; format: cell-based, human; conditions: read-out: IC50 Hek-293
Protocol: as §4, §3

[5] = test system: β-actin in MDA-MB-231 cells; assay: Actin immunofluorescence, MDA-MB-231; format: cell-based, human; conditions: 24 h; compound 1 at its IC50 value, LA 0.1 µM
Protocol: (§5) The MitoTracker Deep Red FM probe (MitoTracker Mitochondrion-Selective Probes, Invitrogen European Headquarters, Paisley, PA4 9RF, UK) was used for mitochondrial staining, as previously described. For immunofluorescence analysis, the cells were seeded and further processed, as reported by Iacopetta et al.. The primary antibodies used were: rabbit anti-β-Actin and vimentin (Santa Cruz Biotechnology, Dallas, TX, USA), mouse anti cytochrome c and NF-κB p65 (Abcam, Cambridge, UK), diluted 1:100 in bovine serum albumin (BSA) 2% overnight at 4 °C. The secondary antibodies were: Alexa Fluor® 488 conjugate goat-anti-rabbit and Alexa Fluor® 568 conjugate goat-anti-mouse (Thermo Fisher Scientific, MA, USA), diluted 1:500 and incubated for 2h at 37 °C. DAPI 0.2 μg/mL (Sigma Aldrich, Milan, Italy) was used for nuclei staining. […] All the images were acquired and processed using the LAS-X software.

β-actin in MCF-7 cells = assay: Actin immunofluorescence, MCF-7; format: cell-based, human; conditions: 24 h; compound 6 at its IC50 value, LA 0.1 µM
Protocol: as §5

β-actin in MCF-10A cells = assay: Actin immunofluorescence, MCF-10A; format: cell-based, human; conditions: 24 h; compounds at their IC50 value, LA 0.1 μM
Protocol: as §5
E: Figure S1. Actin immunofluorescence studies in MCF-10A cells […]
Figure S1. Actin immunofluorescence studies. M CF-10A cells were treat ed with compounds 1 and […]
treatment, the cells were methanol fixed, incubated with primary and secondary antibodies, stained with DAPI and observed and imaged under the inverted fluorescence microscope at 20x […]
A: nuclear stain with DAPI (λex/λem = 350/460 nm); Panels B: β-actin ([…]); Panels C: show a merge. R epresentative fields are shown.

Hek-293 cells [6] = assay: MTT assay, normal Hek-293; format: cell-based, human; conditions: up to the concentration of 200 μM
vimentin in MCF-7 cells = assay: Vimentin expression (immunofluorescence), MCF-7; format: cell-based, human; conditions: fluorescence quantification; IC50 value, 24 h
Protocol: as §5
Protein lysates underwent the SDS-PAGE process, as already defined. Then lysates were resolved on a 7.5% SDS polyacrylamide gel, transferred to a nitrocellulose membrane, and probed with antibodies against vimentin and GAPDH (Santa Cruz Biotechnology, Dallas, TX, USA). […] The images are representative of three independent experiments.

[7] = MTT, 72 h, normal cells, mean ± SD

Row | Compound | LogP [3] | IC50 (MDA-MB-231 cells; MTT, 72 h, mean ± SD) [µM] | IC50 (MCF-7 cells; MTT, 72 h, mean ± SD) [µM] | IC50 (SkBr3 cells; MTT, 72 h, mean ± SD) [µM] | IC50 (MCF-10A cells; MTT, normal cells, mean ± SD) [µM] | IC50 (Hek-293 cells [4]; [7]) [µM] | also measured
1 | C=C1[C@@H](C)[C@H]2[C@H](Cc3ccccc3)NC(=O)[C@]23OC(=O)/C=C/[C@H](O)CCC[C@@H](C)C/C=C/[C@H]3[C@@H]1O [cytochalasin B] | – | – | – | – | – | – | effect on actin polymerization (in words) [1]: impeded the actin polymerization; actin polymerization curve, final value [1]: ended almost at the same RFU value of the beginning; effect on already polymerized actin (in words) [2]: did not produce a significant decrease
2 | COC(Cn1ccn(C)[c]1=[Au+]=[c]1n(C)ccn1CC(OC)c1ccccc1)c1ccccc1.[Cl-] (centres unmarked) [Compound 3] | 0.62 | 2.2 ± 1.1 | 3.3 ± 1.4 | 10.9 ± 0.7 | 13.3 ± 1 | 39 ± 0.9 | –
3 | C/C1=C/C(=O)O[C@@H]2C[C@@H](CC[C@H](C)/C=C\C=C\CC1)O[C@@](O)([C@@H]1CSC(=O)N1)C2 [Latrunculin A, reference compound] | – | – | – | – | – | – | IC50 (MDA-MB-231 cells; Homo sapiens, MDA-MB-231, 72 h): 0.024 µM; IC50 (MCF-7 cells; Homo sapiens, MCF7, 72 h): 0.14 µM; IC50 (SkBr3 cells; Homo sapiens, SK-BR-3, 72 h): 0.7 ± 1.2 µM; IC50 (MCF-10A cells; Homo sapiens, MCF-10A): 0.045 µM; IC50 (Hek-293 cells [4]; Homo sapiens, HEK293, 72 h): 0.093 µM; actin polymerization curve, value 14 min after the reaction started [1]: about 12.000 RFU; effect on actin polymerization (in words) [1]: impeded the actin polymerization; actin polymerization curve, final value [1]: about 10.000 RFU; effect on already polymerized actin (in words) [2]: triggered the actin depolymerization; actin depolymerization curve, end value ([2]; 5 µM added to actin polymerized for one hour, followed for another hour): 14.000 RFU; actin depolymerization curve, value after the net decrease at about seven minutes ([2]; 5 µM added to actin polymerized for one hour, initial value around 28.000 RFU): about 16.800 RFU; actin organization in MDA-MB-231 cells [5]: complete disorganization of the actin system; actin organization in MCF-7 cells (β-actin in MCF-7 cells): complete disorganization of the actin system; actin organization in MCF-10A cells (β-actin in MCF-10A cells): aberrant actin arrangement; cytotoxicity against the normal Hek-293 cells (in words) (Hek-293 cells [6]): drastically reduced
4 | CC(=O)[O-].COC(Cn1ccn(C)[c]1=[Au+]=[c]1n(C)ccn1CC(OC)c1ccccc1)c1ccccc1 (centres unmarked) [Compound 4, Bis [(N-methyl, N’(2-methoxy-2-phenyl-ethyl)imidazole-2-ylidine]gold(I)] acetate] | – | 3 ± 0.7 | 9.4 ± 0.6 | 2.6 ± 0.7 | 5.2 ± 0.9 | 7.6 ± 1 | –
5 | N.N.[Cl][Pt][Cl] [Cisplatin, reference compound] | – | 28.7 ± 0.4 | 35.8 ± 0.7 | 7.4 ± 0.9 | 81.3 ± 0.6 | 16.3 ± 0.9 | –
6 | CC(=O)[O-].Cn1ccn(CC(O)c2ccccc2)[c]1=[Au+]=[c]1n(C)ccn1CC(O)c1ccccc1 (centres unmarked) [Compound 5] | 0.12 | 58.5 ± 1.2 | 21.9 ± 0.5 | 58.9 ± 1.2 | 27.8 ± 0.7 | > 200 | –
7 | CC(=O)[O-].Cn1ccn(CC([O-])c2ccccc2)[c]1=[Au+]=[c]1n(C)ccn1CC([O-])c1ccccc1.[Na+].[Na+] (centres unmarked) [Compound 2] | 0.047 | 22.6 ± 1.1 | 30.6 ± 0.7 | 38.4 ± 0.4 | 39.6 ± 0.5 | > 200 | reduction of vimentin expression with respect to the control, MCF-7 (vimentin in MCF-7 cells): two times lower
